PMC11772769, “Selective cargo and membrane recognition by SNX17 regulates its interaction with Retriever” (EMBO Reports, 2024)

Experiments:
[1] = Liposome co-sedimentation assay; assay type: binding; details: protein alone (2 μM) with PI3P-containing LUVs (1 mM), 25 mM Hepes pH 7.5, 200 mM NaCl, 1 h room temperature; Coomassie densitometry; mean ± SD
Method: All lipids were purchased from Avanti Polar Lipids, INC. (Alabaster, AL) and dissolved in a final 20:9 molar ratio of chloroform:methanol. The lipid composition of liposomes consisted of DOPC, DOPE, DOPS, 18:1 PI(3)P, and 1,2-dioleoyl-sn-glycero-3-phosphoethanolamine-N-(lissamine rhodamine B sulfonyl) (18:1 Liss Rhod PE) in a final molar ratio of 44.7:29.3:20.0:5.0:1.0, respectively. Vesicles were prepared using the same thin-film hydration method described for GUVs, followed by extrusion to get a more homogeneous vesicle population. A mini extruder (Avanti Polar Lipids) and Whatman Nucleopore track-etched membranes with a pore size of 0.4 μm (Cytiva) were used to obtain Large Unilamellar Vesicles (LUVs). The extrusion buffer (25 mM Hepes pH 7.5, 1 mM TCEP) was supplemented with 250 mM raffinose pentahydrate to produce vesicles filled with raffinose. These vesicles can be separated from the aqueous solution in co-sedimentation assays by centrifugation (Julkowska et al, [2013]). […]
For co-sedimentation experiments, the working buffer (25 mM Hepes pH 7.5, 200 mM NaCl, 1 mM TCEP), proteins (Retriever, HisSumo-SNX17, and His10-L2FBR or His10-LRP1ICD in a 2:2:4 μM ratio), and liposomes (1 mM final concentration) were sequentially mixed into 0.5 ml tubes. […] Quantification of signal intensity was determined using Empiria Studio Software (LI-COR). […]

VPS26C = target: T1, VPS26C (Homo sapiens, UniProt O14972); assay: Isothermal titration calorimetry VPS26C with SNX17FERM-CT; assay type: binding; details: ITC, 30 μM VPS26C and 300 μM SNX17FERM-CT, 25 mM Hepes pH 7.5, 150 mM NaCl, 25 °C; also pull-down
T1 construct: His-Sumo3 (N, cleaved yes); made in house; host or cells: Escherichia coli BL21(DE3)
Method: Isothermal titration calorimetry (ITC) experiments were carried out on a Nano ITC calorimeter (TA Instruments). VPS26C and SNX17FERM-CT were dialyzed overnight at 4 °C against 25 mM Hepes pH 7.5, 150 mM NaCl, and 0.5 mM TCEP, and degassed for 30 min at 25 °C before titration. The titration experiments were conducted at 25 °C with one initial 1.5 μl injection followed by 19 injections of 2.5 μl with a spacing of 300 s between injections. To determine the heat of dilution similar injections of SNX17FERM-CT in buffer were carried out. The resulting titration data were analyzed using NanoAnalyze software (TA Instruments).

interaction with VPS26C (VPS26C): no direct interaction
Substance: SNX17: recombinant sorting nexin 17; His-Sumo3-SNX17 in co-sedimentation, SNX17FERM-CT in ITC
percentage of total protein bound to the pellet [1]: 64 ± 17%
